Here are results for 2 molecules from patent US20230097753A1, “ALPHA-HYDROXYLATED FATTY-ACID METABOLITES, MEDICAL USES AND USE AS BIOMARKERS” (UNIVERSITAT DE LES ILLES BALEARS, priority 2020, published 2023).

For this test, the system named is 5xFAD mice. Nature of the test: Radial arm maze test in 5xFAD model of Alzheimer's disease. Type of test: in vivo, mouse. The note with it: 20 mg/kg/day, 3 to 7 months of age. Here is the method:
FIG. 6. A, B and C: Chronic treatment with HPA acid or its prodrug, DHA-H, prevents cognitive decline typical of Alzheimer's disease in the murine transgenic model (5xFAD). Cognitive assessment was performed by the 8-arm Radial Labyrinth test. The animals received treatment between 3 and 7 months of age and the test was performed during the last month of treatment. During this test, the total errors made during the test (A), the reference memory errors (RME) (B) and the working memory errors (WME) (C) were taken into account. Each column represents the mean±SEM of errors during the last week of the radial labyrinth test. The black columns represent the errors made by WT mice. The blank columns represent the errors made by the 5xFAD transgenic mice treated with the vehicle (5% ethanol). Striped columns represent errors made by 5xFAD mice treated with DHA-H (20 mg/kg/day). Boxed columns represent errors made by 5xFAD mice treated with HPA (20 mg/kg/day). […] The bars represent the mean±standard error for each treatment condition and the statistical analysis was performed by unidirectional ANOVA and the Tukey multiple evaluation test: *p<0.05 when compared to healthy control (WT) and #p<0.05 when compared to 5xFAD control condition (treated with the vehicle). […]

`CCC=CCC=CCC=CCC=CCC=CCC=CCC(O)C(=O)O` (centres unmarked) [DHA-H, 2-hydroxy-drocosahexaenoic acid]: the “Cognition in 8-arm radial labyrinth test (total errors, RME, WME)” value is on record as “cognitive improvement”.

For `CC/C=C\C/C=C\C/C=C\C/C=C\C/C=C\CCCCC(=O)O` [HPA, (6Z,9Z,12Z,15Z,18Z)-heneicosa-6,9,12,15,18-pentaenoic acid], the “Cognition in 8-arm radial labyrinth test (total errors, RME, WME)” value was “cognitive improvement”.
